Assay results published in patent publication US6358885B1, “Substituted phenylheterocyclic herbicides” (Mississippi State University, priority 1992, dated 2002).

How the values were obtained:
barley = assay: Test B preemergence/postemergence greenhouse plant response rating 0 to 10; type: in vivo, Hordeum vulgare; settings: 0 to 10 scale
Summary of the method: (§1)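 Both application timings were run together: seeds got compound preemergence, and established seedlings (two to eighteen cm) got it postemergence. Non-phytotoxic solvent carried the chemical. Ratings are visual, versus controls, at twelve to sixteen days.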

bedstraw = assay: as above; type: in vivo, Galium aparine; settings: 0 to 10 scale
Summary of the method: as §1

blackgrass [1] = assay: as above; type: in vivo, Alopecurus myosuroides; settings: 0 to 10 scale
Summary of the method: as §1

cheatgrass = assay: as above; type: in vivo, Bromus secalinus; settings: 0 to 10 scale
Summary of the method: as §1

cocklebur = assay: as above; type: in vivo, Xanthium pensylvanicum; settings: 0 to 10 scale
Summary of the method: as §1

cotton = assay: as above; type: in vivo, Gossypium hirsutum; settings: 0 to 10 scale
Summary of the method: as §1

rice = assay: as above; type: in vivo, Oryza sativa; settings: 0 to 10 scale
Summary of the method: as §1

wild buckwheat = assay: as above; type: in vivo, Polygonum convolvulus; settings: 0 to 10 scale
Summary of the method: as §1

blackgrass [2] = assay: Test C preemergence/postemergence greenhouse plant response rating 0 to 100; type: in vivo, Alopecurus myosuroides; settings: for Plant response rating, Blackgrass: 62 g/ha, 0 to 100 scale
Summary of the method: (§2)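 Compounds in non-phytotoxic solvent applied preemergence to sandy loam one day after planting, postemergence at the 1–4 leaf stage, or to ~2.5 cm floodwater over silt loam.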

corn = assay: as above; type: in vivo, Zea mays; settings: for Plant response rating, Corn: 62 g/ha, 0 to 100 scale
Summary of the method: as §2

giant foxtail = assay: as above; type: in vivo, Setaria faberii; settings: for Plant response rating, Giant foxtail: 62 g/ha, 0 to 100 scale
Summary of the method: as §2

lambsquarters = assay: as above; type: in vivo, Chenopodium album; settings: for Plant response rating Lambsquarters: 62 g/ha, 0 to 100 scale
Summary of the method: as §2

rape = assay: as above; type: in vivo, Brassica napus; settings: for Plant response rating, Rape: 62 g/ha, 0 to 100 scale
Summary of the method: as §2

ryegrass = assay: as above; type: in vivo, Lolium multiflorum; settings: for Plant response rating Ryegrass: 62 g/ha, 0 to 100 scale
Summary of the method: as §2

sugar beet = assay: as above; type: in vivo, Beta vulgaris
Summary of the method: as §2

wheat = assay: as above; type: in vivo, Triticum aestivum
Summary of the method: as §2

duck salad = assay: Test C flood test plant response rating 0 to 100; type: in vivo, Heteranthera limosa
Summary of the method: as §2

barnyardgrass = assay: Test C flood test plant response rating 0 to 100; type: in vivo, Echinochloa crus-galli
Summary of the method: as §2

[3] = POSTEMERGENCE, 62 g/ha, 0 to 100 scale
[4] = POSTEMERGENCE section, flood test, Rate 1 g/ha
[5] = POSTEMERGENCE section, flood test, Rate 4 g/ha
[6] = Rate 16 g/ha, under POSTEMERGENCE head (flood test species)
[7] = flood test species listed under POSTEMERGENCE, 62 g/ha, 0 to 100 scale

Compound: CCN1C(=O)COc2cc(F)c(-c3nn4c(c3Cl)CCCC4)cc21 [Compound 54]
- Plant response rating, Barley (barley; POSTEMERGENCE, Rate 10 g/ha): 4
- Plant response rating, Barley (barley; POSTEMERGENCE, Rate 50 g/ha): 4
- Plant response rating, Barley (barley; PREEMERGENCE, Rate 10 g/ha): 0
- Plant response rating, Barley (barley; PREEMERGENCE, Rate 50 g/ha): 2
- Plant response rating, Bedstraw (bedstraw; POSTEMERGENCE, Rate 10 g/ha): 9
- Plant response rating, Bedstraw (bedstraw; POSTEMERGENCE, Rate 50 g/ha): 9
- Plant response rating, Bedstraw (bedstraw; PREEMERGENCE, Rate 10 g/ha): 8
- Plant response rating, Bedstraw (bedstraw; PREEMERGENCE, Rate 50 g/ha): 9
- Plant response rating, Blackgrass (blackgrass [1]; POSTEMERGENCE, Rate 10 g/ha): 5
- Plant response rating, Blackgrass (blackgrass [1]; POSTEMERGENCE, Rate 50 g/ha): 6
- Plant response rating, Blackgrass (blackgrass [1]; PREEMERGENCE, Rate 10 g/ha): 3
- Plant response rating, Blackgrass (blackgrass [1]; PREEMERGENCE, Rate 50 g/ha): 3
- Plant response rating, Cheatgrass (cheatgrass; POSTEMERGENCE, Rate 10 g/ha): 5
- Plant response rating, Cheatgrass (cheatgrass; POSTEMERGENCE, Rate 50 g/ha): 7
- Plant response rating, Cheatgrass (cheatgrass; PREEMERGENCE, Rate 10 g/ha): 1
- Plant response rating, Cheatgrass (cheatgrass; PREEMERGENCE, Rate 50 g/ha): 3
- Plant response rating, Cocklebur (cocklebur; POSTEMERGENCE, Rate 10 g/ha): 9
- Plant response rating, Cocklebur (cocklebur; POSTEMERGENCE, Rate 50 g/ha): 10
- Plant response rating, Cocklebur (cocklebur; PREEMERGENCE, Rate 10 g/ha): 0
- Plant response rating, Cocklebur (cocklebur; PREEMERGENCE, Rate 50 g/ha): 0
- Plant response rating, Cotton (cotton; POSTEMERGENCE, Rate 10 g/ha): 10
- Plant response rating, Cotton (cotton; POSTEMERGENCE, Rate 50 g/ha): 10
- Plant response rating, Cotton (cotton; PREEMERGENCE, Rate 10 g/ha): 1
- Plant response rating, Cotton (cotton; PREEMERGENCE, Rate 50 g/ha): 2
- Plant response rating, Rice (rice; POSTEMERGENCE, Rate 10 g/ha): 3
- Plant response rating, Rice (rice; POSTEMERGENCE, Rate 50 g/ha): 4
- Plant response rating, Rice (rice; PREEMERGENCE, Rate 50 g/ha): 0
- Plant response rating, Wild buckwheat (wild buckwheat; POSTEMERGENCE, Rate 10 g/ha): 10
- Plant response rating, Wild buckwheat (wild buckwheat; POSTEMERGENCE, Rate 50 g/ha): 10
- Plant response rating, Wild buckwheat (wild buckwheat; PREEMERGENCE, Rate 50 g/ha): 10
- Plant response rating, Blackgrass (blackgrass [2]; POSTEMERGENCE): 60
- Plant response rating (0 to 100), Blackgrass (blackgrass [2]; POSTEMERGENCE, Rate 1 g/ha): 30
- Plant response rating (0 to 100), Blackgrass (blackgrass [2]; POSTEMERGENCE, Rate 4 g/ha): 40
- Plant response rating, Blackgrass (blackgrass [2]; PREEMERGENCE): 70
- Plant response rating (0 to 100), Blackgrass (blackgrass [2]; PREEMERGENCE, Rate 1 g/ha): 0
- Plant response rating (0 to 100), Blackgrass (blackgrass [2]; PREEMERGENCE, Rate 4 g/ha): 10
- Plant response rating (0 to 100), Blackgrass (blackgrass [2]; Rate 16 g/ha, POSTEMERGENCE): 50
- Plant response rating (0 to 100), Blackgrass (blackgrass [2]; Rate 16 g/ha, PREEMERGENCE): 20
- Plant response rating, Corn (corn; POSTEMERGENCE): 50
- Plant response rating (0 to 100), Corn (corn; POSTEMERGENCE, Rate 1 g/ha): 30
- Plant response rating (0 to 100), Corn (corn; POSTEMERGENCE, Rate 4 g/ha): 30
- Plant response rating, Corn (corn; PREEMERGENCE): 40
- Plant response rating (0 to 100), Corn (corn; PREEMERGENCE, Rate 1 g/ha): 0
- Plant response rating (0 to 100), Corn (corn; PREEMERGENCE, Rate 4 g/ha): 0
- Plant response rating (0 to 100), Corn (corn; Rate 16 g/ha, POSTEMERGENCE): 40
- Plant response rating (0 to 100), Corn (corn; Rate 16 g/ha, PREEMERGENCE): 0
- Plant response rating, Giant foxtail (giant foxtail; POSTEMERGENCE): 70
- Plant response rating (0 to 100), Giant foxtail (giant foxtail; POSTEMERGENCE, Rate 1 g/ha): 10
- Plant response rating (0 to 100), Giant foxtail (giant foxtail; POSTEMERGENCE, Rate 4 g/ha): 20
- Plant response rating, Giant foxtail (giant foxtail; PREEMERGENCE): 60
- Plant response rating (0 to 100), Giant foxtail (giant foxtail; PREEMERGENCE, Rate 1 g/ha): 0
- Plant response rating (0 to 100), Giant foxtail (giant foxtail; PREEMERGENCE, Rate 4 g/ha): 0
- Plant response rating (0 to 100), Giant foxtail (giant foxtail; Rate 16 g/ha, POSTEMERGENCE): 40
- Plant response rating (0 to 100), Giant foxtail (giant foxtail; Rate 16 g/ha, PREEMERGENCE): 0
- Plant response rating Lambsquarters (lambsquarters; POSTEMERGENCE): 100
- Plant response rating (0 to 100), Lambsquarters (lambsquarters; POSTEMERGENCE, Rate 1 g/ha): 10
- Plant response rating (0 to 100), Lambsquarters (lambsquarters; POSTEMERGENCE, Rate 4 g/ha): 50
- Plant response rating Lambsquarters (lambsquarters; PREEMERGENCE): 100
- Plant response rating (0 to 100), Lambsquarters (lambsquarters; PREEMERGENCE, Rate 1 g/ha): 0
- Plant response rating (0 to 100), Lambsquarters (lambsquarters; PREEMERGENCE, Rate 4 g/ha): 60
- Plant response rating (0 to 100), Lambsquarters (lambsquarters; Rate 16 g/ha, POSTEMERGENCE): 75
- Plant response rating (0 to 100), Lambsquarters (lambsquarters; Rate 16 g/ha, PREEMERGENCE): 100
- Plant response rating, Rape (rape; POSTEMERGENCE): 100
- Plant response rating (0 to 100), Rape (rape; POSTEMERGENCE, Rate 1 g/ha): 50
- Plant response rating (0 to 100), Rape (rape; POSTEMERGENCE, Rate 4 g/ha): 50
- Plant response rating, Rape (rape; PREEMERGENCE): 10
- Plant response rating (0 to 100), Rape (rape; PREEMERGENCE, Rate 1 g/ha): 0
- Plant response rating (0 to 100), Rape (rape; PREEMERGENCE, Rate 4 g/ha): 0
- Plant response rating (0 to 100), Rape (rape; Rate 16 g/ha, POSTEMERGENCE): 100
- Plant response rating (0 to 100), Rape (rape; Rate 16 g/ha, PREEMERGENCE): 0
- Plant response rating Ryegrass (ryegrass; POSTEMERGENCE): 60
- Plant response rating (0 to 100), Ryegrass (ryegrass; POSTEMERGENCE, Rate 1 g/ha): 10
- Plant response rating (0 to 100), Ryegrass (ryegrass; POSTEMERGENCE, Rate 4 g/ha): 30
- Plant response rating Ryegrass (ryegrass; PREEMERGENCE): 70
- Plant response rating (0 to 100), Ryegrass (ryegrass; PREEMERGENCE, Rate 1 g/ha): 0
- Plant response rating (0 to 100), Ryegrass (ryegrass; PREEMERGENCE, Rate 4 g/ha): 0
- Plant response rating (0 to 100), Ryegrass (ryegrass; Rate 16 g/ha, POSTEMERGENCE): 40
- Plant response rating (0 to 100), Ryegrass (ryegrass; Rate 16 g/ha, PREEMERGENCE): 30
- Plant response rating, Sugar beet (sugar beet; [3]): 100
- Plant response rating (0 to 100), Sugar beet (sugar beet; POSTEMERGENCE, Rate 1 g/ha): 100
- Plant response rating (0 to 100), Sugar beet (sugar beet; POSTEMERGENCE, Rate 4 g/ha): 100
- Plant response rating (0 to 100), Sugar beet (sugar beet; PREEMERGENCE, Rate 1 g/ha): 0
- Plant response rating (0 to 100), Sugar beet (sugar beet; PREEMERGENCE, Rate 4 g/ha): 10
- Plant response rating (0 to 100), Sugar beet (sugar beet; Rate 16 g/ha, POSTEMERGENCE): 100
- Plant response rating (0 to 100), Sugar beet (sugar beet; Rate 16 g/ha, PREEMERGENCE): 100
- Plant response rating, Wheat (wheat; [3]): 60
- Plant response rating (0 to 100), Wheat (wheat; POSTEMERGENCE, Rate 1 g/ha): 20
- Plant response rating (0 to 100), Wheat (wheat; POSTEMERGENCE, Rate 4 g/ha): 40
- Plant response rating (0 to 100), Wheat (wheat; PREEMERGENCE, Rate 1 g/ha): 0
- Plant response rating (0 to 100), Wheat (wheat; PREEMERGENCE, Rate 4 g/ha): 0
- Plant response rating (0 to 100), Wheat (wheat; Rate 16 g/ha, POSTEMERGENCE): 60
- Plant response rating (0 to 100), Wheat (wheat; Rate 16 g/ha, PREEMERGENCE): 10
- Plant response rating (0 to 100), Duck salad (duck salad; [4]): 0
- Plant response rating (0 to 100), Duck salad (duck salad; [5]): 0
- Plant response rating (0 to 100), Duck salad (duck salad; [6]): 35
- Plant response rating Duck salad (duck salad; [7]): 100
- Plant response rating (0 to 100), Barnyardgrass 2 (barnyardgrass; [4]): 0
- Plant response rating (0 to 100), Barnyardgrass 2 (barnyardgrass; [5]): 10
- Plant response rating (0 to 100), Barnyardgrass 2 (barnyardgrass; [6]): 95
- Plant response rating Barnyardgrass 2 (barnyardgrass; [7]): 100
